Source: patent US20220315572A1, “SUBSTITUTED CYANOPYRROLIDINES WITH ACTIVITY AS USP30 INHIBITORS” (MISSION THERAPEUTICS LIMITED, priority 2019, published 2022)
pEC50: −log10 of the molar value. Values after ≈ are worked out from the molar mass of the structure shown.

How the values were obtained:
[1] = system: TOM20 ubiquitylation; experiment: TOM20-ubiquitylation assay; assay type: cell-based, Human; conditions: antimycin A/oligomycin mitophagy trigger; n = 5, (0.015-0.075) printed below
From the text: Human cell lines can be challenged with mitochondrial depolarizing agents (ionophores (eg. CCCP, valinomycin), mitochondrial complex inhibitors (oligomycin, antimycin A)) to induce ubiquitylation of TOM20, which is then further promoted in the presence of USP30 inhibitors. TOM20 ubiquitylation is subsequently assessed through western blotting of the cell lysates, with TOM20 ubiquitylation adduct detection possible due to an 8 kDa molecule weight increase for each molecule of ubiquitin added, resulting in laddering of a TOM20 immunoreactive band. TOM20-ubiquitylation levels can be quantified using chemiluminescence densitometry of laddered immunoreactive bands.

[2] = Turbidimetric solubility; assay type: physicochemical; conditions: aqueous buffer, kinetic from dmso stock
From the text: Turbidimetric solubility: Test compound solution prepared in DMSO diluted into aqueous buffer.
Turbidimetry is used as the end-point by measuring absorbance at 620 nm.

[3] = Hepatocyte Cl mouse; assay type: in vitro ADME; conditions: mouse hepatocytes
Description: Hep Cl mouse: in vitro hepatocyte clearance in mouse cells.
Clu: in vitro clearance. Clu as defined here is the scaled clearance, in turn calculated from the intrinsic clearance. The intrinsic clearance is the predicted clearance due to hepatic metabolic reactions, determined from incubation of a compound in a hepatocyte preparation.

[4] = Log D; assay type: physicochemical; conditions: pH 7.4; read-out: Log D measured at pH 7.4
From the text: log D: distribution co-efficient; lipophilicity measurement.

[5] = system: USP2, USP10, USP16, USP21, USP22, USP25, USP28, USP35, USP46; experiment: DUB biochemical IC50 assays, nine DUBs; conditions: range over the nine DUBs; for IC50: Ref. Ex. C excl. USP22, Ref. Ex. D excl. USP2, 46
[6] = system: TK6 cells; experiment: In vitro micronucleus assay; assay type: cell-based; conditions: 27 hours recovery
Description: The micronucleus assay may be used to determine if a compound is genotoxic by evaluating the presence of micronuclei. Micronuclei may contain chromosome fragments produced from DNA breakage (clastogens) or whole chromosomes produced by disruption of the mitotic apparatus (aneugens).
(§1) Example 1 was assessed in the bacterial reverse mutation assay (Ames) and in vitro micronucleus assay. All in vitro tests were conducted with and without exogenous metabolic activation using concentrations up to those limited by cytotoxicity or insolubility.
Induction of chromosome damage was assessed using the in vitro micronucleus assay in TK6 cells. Example 1 was negative for induction of micronuclei when incubated for 3 hours in the presence of exogenous metabolic activation followed by 27 hours recovery, and also when incubated for 27 hours in the absence of exogenous metabolic activation followed by 27 hours recovery.

[7] = system: HCT116 human colorectal carcinoma cells; experiment: In vitro cytotoxicity (Cell Tox), alamarBlue; assay type: cell-based; conditions: for pEC50: Homo sapiens, HCT-116, 96-hour continual compound exposure, alamarBlue
From the text: There is also a need for compounds that have a favourable safety profile, which may be measured by a variety of standard in vitro and in vivo methods. A cell toxicity counter-screen may be used to assay the anti-proliferative/cytotoxic effect in a particular cell line (e.g. HCT116) by fluorometric detection of rezasurin (alamarBlue) to resofurin in response to mitochondrial activity.
In Vitro Cytotoxicity (Cell Tox): Measured in HCT116 human colorectal carcinoma cells using alamarBlue as the assay endpoint. Compound cytotoxicity was measured over a period of 96-hour continual compound exposure.

[8] = system: P-glycoprotein (MDR1), human; experiment: MDR1-MDCK flux assay; assay type: in vitro ADME, Canine; conditions: dog
From the text: The treatment of CNS disorders, including Alzheimer's disease, Parkinson's disease, and other disorders described herein, requires drug molecules to target the brain, which requires adequate penetration of the blood brain barrier. […] The probability that a compound can cross the blood brain barrier may be measured by an in vitro flux assay utilizing a MDR1-MDCK cell monolayer (Madin-Darby Canine Kidney cells transfected with MDR-1 resulting in overexpression of the human efflux transporter P-glycoprotein). Additionally, exposure may also be measured directly in brain and plasma using in vivo animal models.
MDR1-MDCK (Madin-Darby Canine Kidney cell monolayer) (in vitro) flux assay.

[9] = target: Cathepsin L (Homo sapiens, UniProt P07711); experiment: Cathepsin IC50, cathepsin L; assay type: biochemical
[10] = system: Cathepsins B, K, L, S, V; experiment: Cathepsin IC50, range over B, K, L, S, V; assay type: biochemical; conditions: for Selectivity preference for USP30 v cathepsins: range over cathepsins B, K, L, S; for IC50: range over the five cathepsins
[11] = Plasma free fraction, equilibrium dialysis; assay type: in vitro ADME; conditions: mouse plasma; read-out: Binding Mouse Plasma fu, p
From the text: Plasma fu,p: The free fraction of a compound in plasma preparation determined by in vitro equilibrium dialysis. It is understood that only unbound (free) compound is capable of engaging with the target.

[12] = system: UCHL1, USP2, USP4, USP8, USP10, USP12/UAF1, USP15, USP16, USP21, USP22, USP25, USP28, USP35, USP36, USP46/UAF1; experiment: DUB biochemical IC50 assays, off-target panel; conditions: bound over all 15 DUBs listed
[13] = system: Salmonella typhimurium strains TA98, TA100, TA1535 and TA97a and the Escherichia Coli strain WP2 uvrA pKM101; experiment: Bacterial reverse mutation assay (Ames); conditions: up to 100 μg/well (equivalent to 5000 μg/plate), with and without metabolic activation
Description: The bacterial reverse mutation assay (Ames Test) may be used to evaluate the mutagenic properties of compounds of the invention, commonly by using the bacterial strain Salmonella typhimurium, which is mutant for the biosynthesis of the amino acid histidine.
as §1

[14] = target: Cathepsin V (Homo sapiens, UniProt O60911); experiment: Cathepsin IC50, cathepsin V; assay type: biochemical
[15] = FaSSIF solubility; assay type: physicochemical; conditions: simulated intestinal fluid, fasted state
From the text: FaSSIF: simulated intestinal fluid in fasted state measured at pH 6.5.

[16] = target: Cathepsin B (Homo sapiens, UniProt P07858); experiment: Cathepsin IC50, cathepsin B; assay type: biochemical

Cathepsin L, sequence (P07711 114-333, species assumed): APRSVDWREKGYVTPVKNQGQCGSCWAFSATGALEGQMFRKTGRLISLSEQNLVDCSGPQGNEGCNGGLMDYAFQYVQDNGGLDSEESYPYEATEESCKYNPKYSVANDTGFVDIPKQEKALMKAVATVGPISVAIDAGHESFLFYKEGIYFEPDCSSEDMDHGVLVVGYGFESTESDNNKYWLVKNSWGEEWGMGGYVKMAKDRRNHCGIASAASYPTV
Cathepsin V, sequence (O60911 114-334, species assumed): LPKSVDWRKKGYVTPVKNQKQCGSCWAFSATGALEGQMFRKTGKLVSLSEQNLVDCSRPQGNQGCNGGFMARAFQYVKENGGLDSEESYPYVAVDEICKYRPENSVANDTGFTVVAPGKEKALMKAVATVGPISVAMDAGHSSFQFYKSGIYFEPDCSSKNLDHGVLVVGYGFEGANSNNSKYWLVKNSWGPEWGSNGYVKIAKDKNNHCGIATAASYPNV

Structure (SMILES) | DUB selectivity preference for USP30 v 9 DUBs [5] | IC50 [5] [µM] | Cell Tox EC50/USP30 IC50 [7] | pEC50 [7] | IC50 [9] [µM] | Selectivity preference for USP30 v cathepsins [10] | IC50 [10] [µM] | IC50 [14] [µM] | IC50 [16] [µM] | further results
C[C@@H]1C[C@@H](NC(=O)c2nnc(-c3cccc(C#N)c3)o2)CN1C#N [Example 1, N-((3R,5R)-1-Cyano-5-methylpyrrolidin-3-yl)-5-(3-cyanophenyl)-1,3,4-oxadiazole-2-carboxamide] | 200-6900 | 5.8 to 202 | >1000 | < 4.52 | 30.9 | 900-10300 | 26.2 to 300 | 176 | 154 | TOM20-Ub 1.5-fold gain EC1.5x (μM) [1]: 0.035 (n = 5) μM; solubility [2]: 65 µM (≈ 21 µg/mL); Hepatocyte Cl mouse scaled Clu [3]: 2.7 L/h/kg; logD [4]: 1.3; induction of micronuclei ([6]; 3 hours in the presence of exogenous metabolic activation): negative; induction of micronuclei ([6]; 27 hours in the absence of exogenous metabolic activation): negative; efflux ratio [8]: 81; Papp A→B ([8]; A-B): 9 nm/s; fold more selective for USP30 over cathepsin L than A ([9]; v Reference Example A): 27 fold; fold more selective for USP30 over cathepsin L than B ([9]; v Reference Example B): 59 fold; fold more selective for USP30 over cathepsin L than C ([9]; v Reference Example C): 18 fold; fold more selective for USP30 over cathepsin L than D ([9]; v Reference Example D): 19 fold; fold more selective for USP30 over cathepsin L than E ([9]; v Reference Example E): 333 fold; fold more selective for USP30 over cathepsin L than F ([9]; v Reference Example F): 3135 fold; fraction unbound [11]: 0.54; IC50 [12]: ≥ 5.8 µM; induction of mutations, reverse mutation assay [13]: did not induce mutations; FaSSIF (μM) measured at pH 6.5 [15]: 415 μM
N#Cc1cccc(-c2nnc(C(=O)N[C@@H]3C[C@@H](CF)N(C#N)C3)o2)c1 [Example 3, N-((3R,5S)-1-Cyano-5-(fluoromethyl)pyrrolidin-3-yl)-5-(3-cyanophenyl)-1,3,4-oxadiazole-2-carboxamide] | 338-23000 | ≥ 4.4 | >2300 | < 4.52 | 9.9 | 760-19700 | 9.9 to 256 | 42.9 | 29.4 | –
